Molecules are shown by their SMILES. Activity calls are given as the source filed them. The rule behind the calls is not given here.

The IC50 is the concentration that inhibits the measured activity by half. Lower therefore signals higher potency. A word on the inhibition: it is the relative decrease from the control value, in per cent. A word on the half-life: it is the time in which the quantity being followed falls by half. One may read the AUC(0-t) as the area under the concentration-time curve up to a stated or last time point. Lower therefore signals less exposure.

The target in data set [1] is T1, Receptor tyrosine-protein kinase erbB-2 (Homo sapiens, UniProt P04626). The data set is described as follows: Inhibition of HER2 (unknown origin).
T1 sequence (P04626 whole entry): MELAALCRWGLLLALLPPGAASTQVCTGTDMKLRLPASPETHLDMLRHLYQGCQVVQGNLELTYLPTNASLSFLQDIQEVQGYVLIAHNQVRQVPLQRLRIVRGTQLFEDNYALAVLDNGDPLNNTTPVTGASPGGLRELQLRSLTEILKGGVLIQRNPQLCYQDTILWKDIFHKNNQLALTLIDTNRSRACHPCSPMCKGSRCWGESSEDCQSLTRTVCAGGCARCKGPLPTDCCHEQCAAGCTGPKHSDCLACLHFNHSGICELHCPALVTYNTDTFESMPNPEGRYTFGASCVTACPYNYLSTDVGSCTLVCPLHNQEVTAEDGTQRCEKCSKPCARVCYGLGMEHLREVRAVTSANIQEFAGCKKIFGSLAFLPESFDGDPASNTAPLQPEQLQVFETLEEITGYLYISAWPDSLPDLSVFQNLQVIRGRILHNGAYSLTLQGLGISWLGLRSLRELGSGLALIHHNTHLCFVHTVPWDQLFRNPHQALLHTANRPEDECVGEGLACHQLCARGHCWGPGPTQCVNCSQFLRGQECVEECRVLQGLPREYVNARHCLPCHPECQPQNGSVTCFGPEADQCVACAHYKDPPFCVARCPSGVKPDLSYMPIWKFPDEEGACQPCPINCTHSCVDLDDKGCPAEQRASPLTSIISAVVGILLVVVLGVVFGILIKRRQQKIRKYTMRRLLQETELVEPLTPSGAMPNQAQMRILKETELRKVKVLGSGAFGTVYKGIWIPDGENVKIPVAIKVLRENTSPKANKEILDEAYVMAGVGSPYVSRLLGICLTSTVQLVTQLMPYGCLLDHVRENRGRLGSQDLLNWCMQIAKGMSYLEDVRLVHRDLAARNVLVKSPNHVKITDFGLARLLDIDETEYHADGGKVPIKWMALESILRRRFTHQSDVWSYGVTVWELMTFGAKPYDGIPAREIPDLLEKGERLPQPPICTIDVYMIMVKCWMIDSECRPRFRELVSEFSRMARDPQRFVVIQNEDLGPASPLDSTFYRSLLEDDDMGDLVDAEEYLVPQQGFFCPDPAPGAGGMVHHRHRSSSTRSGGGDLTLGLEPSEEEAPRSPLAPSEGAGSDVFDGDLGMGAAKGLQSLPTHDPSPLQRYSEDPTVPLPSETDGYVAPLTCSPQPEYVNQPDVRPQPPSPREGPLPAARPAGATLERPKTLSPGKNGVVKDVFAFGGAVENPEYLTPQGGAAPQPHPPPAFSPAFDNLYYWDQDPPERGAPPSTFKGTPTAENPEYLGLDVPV
The target in data set [2] is T2, Tyrosine-protein kinase Tec (Homo sapiens) (UniProt P42680).
T2 sequence (whole entry): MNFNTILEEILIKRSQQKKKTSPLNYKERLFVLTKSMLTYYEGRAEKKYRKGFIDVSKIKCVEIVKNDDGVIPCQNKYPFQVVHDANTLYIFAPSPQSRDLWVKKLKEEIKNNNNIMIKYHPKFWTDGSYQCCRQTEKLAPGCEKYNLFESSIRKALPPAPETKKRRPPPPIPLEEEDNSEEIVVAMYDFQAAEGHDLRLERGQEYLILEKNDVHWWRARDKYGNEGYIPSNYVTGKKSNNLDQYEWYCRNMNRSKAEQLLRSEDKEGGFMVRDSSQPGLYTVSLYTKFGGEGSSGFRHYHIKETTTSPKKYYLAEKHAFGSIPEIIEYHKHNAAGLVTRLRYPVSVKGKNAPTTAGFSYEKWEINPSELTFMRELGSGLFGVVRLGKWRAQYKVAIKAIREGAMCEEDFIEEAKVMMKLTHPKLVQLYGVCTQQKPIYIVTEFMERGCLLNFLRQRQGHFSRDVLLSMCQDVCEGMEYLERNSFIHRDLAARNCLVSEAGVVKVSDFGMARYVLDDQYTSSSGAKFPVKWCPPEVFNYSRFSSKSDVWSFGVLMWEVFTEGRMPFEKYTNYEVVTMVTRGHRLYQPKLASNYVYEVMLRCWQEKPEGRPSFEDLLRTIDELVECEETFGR
In words: Inhibition of TEC (unknown origin) at 500 nM relative to control.

Data set [3] deals with Protein-tyrosine kinase 6 (Homo sapiens) (UniProt Q13882). The data set is described as follows: Inhibition of BRK (unknown origin) at 500 nM relative to control.
Protein-tyrosine kinase 6 (Homo sapiens), sequence (Q13882 whole entry, looked up): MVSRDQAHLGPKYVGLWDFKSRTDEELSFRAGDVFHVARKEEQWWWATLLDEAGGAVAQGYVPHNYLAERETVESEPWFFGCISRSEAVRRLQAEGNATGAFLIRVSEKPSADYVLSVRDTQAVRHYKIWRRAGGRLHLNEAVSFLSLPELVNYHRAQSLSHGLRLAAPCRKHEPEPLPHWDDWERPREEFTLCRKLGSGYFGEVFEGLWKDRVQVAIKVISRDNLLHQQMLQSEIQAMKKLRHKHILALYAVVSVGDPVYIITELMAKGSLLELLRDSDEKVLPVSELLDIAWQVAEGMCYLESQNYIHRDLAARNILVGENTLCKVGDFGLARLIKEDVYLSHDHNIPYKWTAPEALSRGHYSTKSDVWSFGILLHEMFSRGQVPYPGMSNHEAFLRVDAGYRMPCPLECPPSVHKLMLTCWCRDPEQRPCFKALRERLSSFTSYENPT
The nature of data set [4]: Half life in Sprague-Dawley rat at 10 mg/kg, iv measured upto 8 hrs by LC-MS/MS analysis. Format: ADME, organism-based. The settings on record: in vivo.
Data set [5] is described as follows: AUC(0 to t) in Sprague-Dawley rat at 10 mg/kg, iv measured upto 8 hrs by LC-MS/MS analysis. Format: ADME, organism-based. The settings on record: in vivo. Further details: dose 10 mg/kg, time < 8 hrs, route iv.
In a further data set the test system is BaF3. In words: In vivo inhibition of EGFR D770-N771 ins NPG mutant in BALB/c mouse implanted with mouse BaF3 cells assessed as reduction in EGFR phosphorylation at 10 to 20 mg/kg, po administered once daily for 13 to 14 days by Western blot analysis. It counts as functional, organism-based. The settings on record: dose 10-20 mg/kg, time 13-14 day. Background: Immunoblotting shows a protein as a band on a membrane.

Data set [6] concerns the target T1, Receptor tyrosine-protein kinase erbB-2. To be noted: dose 500.0 nM.
Description: Inhibition of HER2 (unknown origin) at 500 nM relative to control

In data set [1], `C=CC(=O)N1CCC(Oc2cc3c(Nc4cccc(Cl)c4F)ncnc3cc2O[C@H]2CCOC2)CC1` gave an IC50 of 1.42 nM. Besides, the inhibition is above 20% in data set [2], above 20% in data set [3] and 100% in data set [6]. The molecule also showed a half-life in data set [4] of 53.4 min. The molecule also returned an AUC(0-t) at 8 h in data set [5] of 13900 ng·h/mL. In the data set on BaF3, the inhibition result is “Active”.

These data come from ChEMBL document CHEMBL5252585, “Structure optimization and discovery of novel compound for the treatment of insertion mutations within exon 20 of EGFR and HER2” (Bioorg Med Chem, 2023).
